The values that follow come from patent US11957671B2, “Benzodioxane modulators of leukotriene A4 hydrolase (LTA4H) for prevention and treatment of aging-associated diseases” (Alkahest, Inc., priority 2021, dated 2024).

The test system of the experiment is synthesis of LTB4 in human whole blood. Description: human whole blood (HWB) assay, LTB4 production inhibition. The experiment is classed as cell-based. Particulars: calcimycin 20 μM. The protocol:
The compounds of the invention are additionally tested in a human whole blood (HWB) assay to determine their ability to inhibit the synthesis of LTB4 in a cellular system. Compounds are combined with heparinized human whole blood and incubated for 15 minutes at 37° C. Calcimycin (20 μM final, prepared in phosphate-buffered saline, pH 7.4) is then added and the mixture is incubated for another 30 minutes at 37° C. The samples are centrifuged for 5 min at low speed (1500×g) and the plasma layer is removed. Plasma LTB4 concentrations are then measured using an antibody-based homogenous time-resolved fluorescence method (CisBio, Bedford, Mass.). In general, the preferred potency range (IC50) of compounds in the HWB assay is between 10 nM to 10 μM, the more preferred potency range is 10 nM to 1 μM, and the most preferred potency range is 10 nM to 100 nM.

The term IC50 denotes the concentration that inhibits the measured activity by half. Regarding `CC(=O)NC1CCN(Cc2ccc([C@H]3COc4cccnc4O3)cc2)CC1` [Example 160, N-(1-{4-[(3S)-2,3-dihydro[1,4]dioxino[2,3-b]pyridin-3-yl)benzyl}piperidin-4-yl)acetamide], the IC50 turned out to be 28 nM.

Turning to `COC1CCN(Cc2ccc([C@H]3COc4cccnc4O3)cc2)C1` (stereo partly drawn) [Example 168, (3S)-3-{4-[(3-methoxypyrrolidin-1-yl)methyl]phenyl}-2,3-dihydro[1,4]dioxino[2,3-b]pyridine], the 50% inhibitory concentration (IC50) is 39 nM. Next, `c1cnc2c(c1)OC[C@H](c1ccc(CNC3CCC3)cc1)O2` [Example 173, N-{4-[(3S)-2,3-dihydro[1,4]dioxino[2,3-b]pyridin-3-yl]benzyl}cyclobutanamine]: 72.8 nM. Consider `NC(=O)NC1CCN(Cc2ccc([C@H]3COc4ccccc4O3)cc2)CC1` [Example 175, 1-(1-{4-[(2S)-2,3-dihydro-1,4-benzodioxin-2-yl]benzyl}piperidin-4-yl)urea], for which the IC50 amounted to 72.6 nM. In the case of `CC(=O)NC1CCN(Cc2ccc([C@H]3COc4ccccc4O3)cc2)CC1` [Example 178, N-(1-(4-[(2S)-2,3-dihydro-1,4-benzodioxin-2-yl]benzyl}piperidin-4-yl)acetamide], the half-inhibitory concentration (IC50) stood at 160 nM. As for `O=C(O)C[C@@H]1CCCN(Cc2ccc([C@H]3COc4ccccc4O3)cc2)C1` [Example 183, [(3S)-1-{4-[(2S)-2,3-dihydro-1,4-benzodioxin-2-yl]benzyl)piperidin-3-yl]acetic acid], the concentration for half-maximal inhibition (IC50) was determined as 151 nM. With `CC(=O)N1CCN(Cc2ccc([C@H]3COc4cccnc4O3)cc2)CC1` [Example 185, 1-(4-{4-[(3S)-2,3-dihydro[1,4]dioxino[2,3-b]pyridin-3-yl]benzyl}piperazin-1-yl)ethanone], the IC50 amounted to 92.3 nM. Turning to `OC1CCN(Cc2ccc([C@H]3COc4cccnc4O3)cc2)CC1` [Example 186, 1-{4-[(3S)-2,3-dihydro[1,4]dioxino[2,3-b]pyridin-3-yl]benzyl}piperidin-4-ol], the half-maximal inhibitory concentration (IC50) came to 36.5 nM. Consider `NC(=O)NC1CCN(Cc2ccc([C@H]3COc4cccnc4O3)cc2)CC1` [Example 187, 1-(1-{4-[(3S)-2,3-dihydro[1,4]dioxino[2,3-b]pyridin-3-yl]benzyl}piperidin-4-yl)urea], for which the IC50 came out at 177 nM. Regarding `CS(=O)(=O)NC1CCN(Cc2ccc([C@H]3COc4cccnc4O3)cc2)CC1` [Example 190, N-(1-{4-[(3S)-2,3-dihydro[1,4]dioxino[2,3-b]pyridin-3-yl]benzyl}piperidin-4-yl)methanesulfonamide], the half-maximal inhibitory concentration (IC50) turned out to be 26 nM. `c1ccc2c(c1)OCC(c1ccc(CN3CCCC3)cc1)O2` (stereo not shown) [Example 200, 1-[4-(2,3-dihydro-1,4-benzodioxin-2-yl)benzyl]pyrrolidine]: the IC50 came to 83 nM. Next, `c1cnc2c(c1)OC[C@H](c1ccc(CN3CCOCC3)cc1)O2` [Example 204, (3S)-3-[4-(morpholin-4-ylmethyl)phenyl]-2,3-dihydro[1,4]dioxino[2,3-b]pyridine]: 95 nM; `O=C(O)[C@@H]1CCN(Cc2ccc([C@H]3COc4ccccc4O3)cc2)C1` [Example 214, (3R)-1-{4-[(2S)-2,3-dihydro-1,4-benzodioxin-2-yl]benzyl}pyrrolidine-3-carboxylic acid]: 169 nM; `COCC(=O)NC1CCN(Cc2ccc([C@H]3COc4ccccc4O3)cc2)CC1` [Example 219, N-(1-{4-[(2S)-2,3-dihydro-1,4-benzodioxin-2-yl]benzyl}piperidin-4-yl)-2-methoxyacetamide]: 149 nM. Next, `CC(C)(O)C(=O)NC1CCN(Cc2ccc([C@H]3COc4ccccc4O3)cc2)CC1` [Example 220, N-(1-{4-[(2S)-2,3-dihydro-1,4-benzodioxin-2-yl]benzyl}piperidin-4-yl)-2-hydroxy-2-methylpropanamide]: 91.3 nM. For `CC(c1ccc([C@H]2COc3ccccc3O2)cc1)N1CCC(C(=O)O)CC1` (stereo partly drawn) [Example 227, 1-(1-{4-[(2S)-2,3-dihydro-1,4-benzodioxin-2-yl]phenyl}ethyl)piperidine-4-carboxylic acid], the half-inhibitory concentration (IC50) was determined as 307 nM.
